Assay results from US20240132484A1, “BROAD SPECTRUM ANTIVIRAL COMPOUNDS TARGETING THE SKI COMPLEX” (priority 2020, published 2024).
Values joined by “and” are separate entries in the source; they are usually repeats but may differ in a detail not shown here. Equal values may be shown once. Read-outs that look alike come from different tables or passages of the source.

Key:
SARS2 = type: cell-based, SARS-CoV-2; conditions: for Infection Data: Percentage Infection Relative to Appropriate DMSO Control: avg background subtraction, replicate wells; for Infection Data: Average, Mean: average of Exp 1-3 (SMW475, SMW477, SMW478), n 9; for Percentage Inhibition Average 1 μM / Screening data (Relative infection to DMSO controls) Average 1 μM: SARS2, 1 μM; for Screening data (Relative infection to DMSO controls) Average 1 μM / Screening data (Relative infection to DMSO controls) Average 5 μM / Screening data (Relative infection to DMSO controls) Average 10 μM / Screening data (Relative infection to DMSO controls) Average 25 μM / Screening data (Relative infection to DMSO controls) Average 50 μM / Average (relative infection to DMSO over the 5 tested concentrations): 100=DMSO control; for Percentage Inhibition Average 5 μM / Screening data (Relative infection to DMSO controls) Average 5 μM: SARS2, 5 μM; for Percentage Inhibition Average 10 μM / Screening data (Relative infection to DMSO controls) Average 10 μM: SARS2, 10 μM; for Percentage Inhibition Average 25 μM / Screening data (Relative infection to DMSO controls) Average 25 μM: SARS2, 25 μM; for Percentage Inhibition Average 50 μM / Screening data (Relative infection to DMSO controls) Average 50 μM: SARS2, 50 μM; for Average (relative infection to DMSO over the 5 tested concentrations): SARS2, average over 1 to 50 uM; for Percentage Infection Relative to Appropriate DMSO Control with Avg Background Subtraction: Nunc Celigo plates, listed as SICLS39; for Infection Data, Average, Mean: average of Exp 1-2 (SMW491, SMW492)
cells (nuclei count) = conditions: for Toxicity Data: Average, Mean: average of Exp 1-3 (SMW475, SMW477, SMW478), n 9; for Relative cell count to DMSO controls, Average 1 μM / Relative cell count to DMSO controls, Average 5 μM / Relative cell count to DMSO controls, Average 10 μM / Relative cell count to DMSO controls, Average 25 μM / Relative cell count to DMSO controls, Average 50 μM: toxicity data, 100=DMSO control; for Relative cell count to DMSO controls, Average (for correlation analysis): average value over the 5 tested concentrations (1 to 50 uM); for Toxicity Data, Average, Mean percentage relative to DMSO control: Average of Exp 1 (SMW491) and Exp 2 (SMW492)

In the case of `Cc1cc(CN(CCN(C)C)Cc2ccco2)sc1Br` [SILCS15], the “Infection Data: Percentage Infection Relative to Appropriate DMSO Control” value (SARS2; 1 uM, Exp 1 (SMW475)) is reported as 117.62% and 124.56% and 121.12%, the “Infection Data: Percentage Infection Relative to Appropriate DMSO Control” value (SARS2; 1 uM, Exp 2 (SMW477)) is reported as 103.78% and 103.22% and 100.05% and the “Infection Data: Percentage Infection Relative to Appropriate DMSO Control” value (SARS2; 1 uM, Exp 3 (SMW478)) is reported as 107.90% and 99.19% and 97.03%. For the same molecule, the “Infection Data: Average, Mean” value (SARS2; 1 uM) was 108.27%, the “Infection Data: Percentage Infection Relative to Appropriate DMSO Control” value (SARS2; 5 uM, Exp 1 (SMW475)) was 131.70% and 141.65% and 132.54% and the “Infection Data: Percentage Infection Relative to Appropriate DMSO Control” value (SARS2; 5 uM, Exp 2 (SMW477)) was 102.31% and 90.53% and 98.90%. For the same molecule, the “Infection Data: Percentage Infection Relative to Appropriate DMSO Control” value (SARS2; 5 uM, Exp 3 (SMW478)) was 98.36% and 110.89% and 93.32%, the “Infection Data: Average, Mean” value (SARS2; 5 uM) was 111.13% and the “Infection Data: Percentage Infection Relative to Appropriate DMSO Control” value (SARS2; 10 uM, Exp 1 (SMW475)) was 79.51% and 121.98% and 93.64%. For the same molecule, the “Infection Data: Percentage Infection Relative to Appropriate DMSO Control” value (SARS2; 10 uM, Exp 2 (SMW477)) was 75.81% and 72.41% and 82.10%, the “Infection Data: Percentage Infection Relative to Appropriate DMSO Control” value (SARS2; 10 uM, Exp 3 (SMW478)) was 111.15% and 106.59% and 85.32% and the “Infection Data: Average, Mean” value (SARS2; 10 uM) was 92.05%. The “Infection Data: Percentage Infection Relative to Appropriate DMSO Control” value (SARS2; 25 uM, Exp 1 (SMW475)) was 30.31% and 27.68% and 26.54%, the “Infection Data: Percentage Infection Relative to Appropriate DMSO Control” value (SARS2; 25 uM, Exp 2 (SMW477)) was 35.02% and 27.68% and 29.29% and the “Infection Data: Percentage Infection Relative to Appropriate DMSO Control” value (SARS2; 25 uM, Exp 3 (SMW478)) was 35.78% and 39.52% and 32.45%. The “Infection Data: Average, Mean” value (SARS2; 25 uM) was 31.59%, the “Infection Data: Percentage Infection Relative to Appropriate DMSO Control” value (SARS2; 50 uM, Exp 1 (SMW475)) was 23.93% and 15.87% and 20.00% and the “Infection Data: Percentage Infection Relative to Appropriate DMSO Control” value (SARS2; 50 uM, Exp 2 (SMW477)) was 18.29% and 18.14% and 19.12%. For the same molecule, the “Infection Data: Percentage Infection Relative to Appropriate DMSO Control” value (SARS2; 50 uM, Exp 3 (SMW478)) was 20.62% and 25.98% and 33.79%, the “Infection Data: Average, Mean” value (SARS2; 50 uM) was 21.75% and the “Percentage Inhibition Average 1 μM” value (SARS2) was −8.27%. For the same molecule, the “Screening data (Relative infection to DMSO controls) Average 1 μM” value (SARS2) was 108.27, the “Percentage Inhibition Average 5 μM” value (SARS2) was −11.13% and the “Screening data (Relative infection to DMSO controls) Average 5 μM” value (SARS2) was 111.13. For the same molecule, the “Percentage Inhibition Average 10 μM” value (SARS2) was 7.95%, the “Screening data (Relative infection to DMSO controls) Average 10 μM” value (SARS2) was 92.05 and the “Percentage Inhibition Average 25 μM” value (SARS2) was 68.41%. The “Screening data (Relative infection to DMSO controls) Average 25 μM” value (SARS2) was 31.59, the “Percentage Inhibition Average 50 μM” value (SARS2) was 78.25% and the “Screening data (Relative infection to DMSO controls) Average 50 μM” value (SARS2) was 21.75. For the same molecule, the “Average (relative infection to DMSO over the 5 tested concentrations)” value (SARS2) was 72.96, the “Toxicity Data: Average, Mean” value (cells (nuclei count); 1 uM) was 105.96% and the “Relative cell count to DMSO controls, Average 1 μM” value (“Relative cell count … Average 1 μM” below) (cells (nuclei count)) was 105.96. For the same molecule, the “Toxicity Data: Average, Mean” value (cells (nuclei count); 5 uM) was 104.00%, the “Relative cell count to DMSO controls, Average 5 μM” value (from here on “Relative cell count … Average 5 μM”) (cells (nuclei count)) was 104 and the “Toxicity Data: Average, Mean” value (cells (nuclei count); 10 uM) was 107.75%. The “Relative cell count to DMSO controls, Average 10 μM” value (shortened to “Relative cell count … Average 10 μM”) (cells (nuclei count)) was 107.75, the “Toxicity Data: Average, Mean” value (cells (nuclei count); 25 uM) was 115.74% and the “Relative cell count to DMSO controls, Average 25 μM” value (“Relative cell count … Average 25 μM” for short) (cells (nuclei count)) was 115.74. For the same molecule, the “Toxicity Data: Average, Mean” value (cells (nuclei count); 50 uM) was 65.19%, the “Relative cell count to DMSO controls, Average 50 μM” value (“Relative cell count … Average 50 μM” below) (cells (nuclei count)) was 65.19 and the “Relative cell count to DMSO controls, Average (for correlation analysis)” value (shortened to “Relative cell count … (for correlation analysis)”) (cells (nuclei count)) was 99.73.
In the case of `COc1ccc(-c2[nH]ncc2C(=O)NC2CCCCCC2)cc1OC` [SILCS60], the “Percentage Inhibition Average 1 μM” value (SARS2) is reported as 20.62%, the “Screening data (Relative infection to DMSO controls) Average 1 μM” value (SARS2) is reported as 79.38 and the “Percentage Inhibition Average 5 μM” value (SARS2) is reported as 26.35%. The “Screening data (Relative infection to DMSO controls) Average 5 μM” value (SARS2) was 73.65, the “Percentage Inhibition Average 10 μM” value (SARS2) was 26.47% and the “Screening data (Relative infection to DMSO controls) Average 10 μM” value (SARS2) was 73.53. For the same molecule, the “Percentage Inhibition Average 25 μM” value (SARS2) was 1.46%, the “Screening data (Relative infection to DMSO controls) Average 25 μM” value (SARS2) was 98.54 and the “Percentage Inhibition Average 50 μM” value (SARS2) was −22.52%. For the same molecule, the “Screening data (Relative infection to DMSO controls) Average 50 μM” value (SARS2) was 122.52, the “Average (relative infection to DMSO over the 5 tested concentrations)” value (SARS2) was 89.52 and the “Relative cell count … Average 1 μM” value (cells (nuclei count)) was 111.59. For the same molecule, the “Relative cell count … Average 5 μM” value (cells (nuclei count)) was 110.17, the “Relative cell count … Average 10 μM” value (cells (nuclei count)) was 109.31 and the “Relative cell count … Average 25 μM” value (cells (nuclei count)) was 96.61. For the same molecule, the “Relative cell count … Average 50 μM” value (cells (nuclei count)) was 85.19 and the “Relative cell count … (for correlation analysis)” value (cells (nuclei count)) was 102.57.
With `CCN(CC)CCN(Cc1cc(C)c(Br)s1)Cc1cc(C)c(Br)s1` [SILCS39] the “Percentage Infection Relative to Appropriate DMSO Control with Avg Background Subtraction” value (SARS2; Exp 1 (SMW491), 1 uM) was 94.45% and 94.76%, the “Percentage Infection Relative to Appropriate DMSO Control with Avg Background Subtraction” value (SARS2; Exp 1 (SMW491), 5 uM) was 61.21% and 63.14% and the “Percentage Infection Relative to Appropriate DMSO Control with Avg Background Subtraction” value (SARS2; Exp 1 (SMW491), 10 uM) was 26.66% and 13.52%. The “Percentage Infection Relative to Appropriate DMSO Control with Avg Background Subtraction” value (SARS2; Exp 1 (SMW491), 25 uM) was 1.98% and 2.03%, the “Percentage Infection Relative to Appropriate DMSO Control with Avg Background Subtraction” value (SARS2; Exp 2 (SMW492), 1 uM) was 55.17% and 68.37% and the “Percentage Infection Relative to Appropriate DMSO Control with Avg Background Subtraction” value (SARS2; Exp 2 (SMW492), 5 uM) was 40.93% and 42.02%. The “Percentage Infection Relative to Appropriate DMSO Control with Avg Background Subtraction” value (SARS2; Exp 2 (SMW492), 10 uM) was 21.95% and 19.13%, the “Percentage Infection Relative to Appropriate DMSO Control with Avg Background Subtraction” value (SARS2; Exp 2 (SMW492), 25 uM) was 5.42% and 6.99% and the “Percentage Infection Relative to Appropriate DMSO Control with Avg Background Subtraction” value (SARS2; Exp 2 (SMW492), 50 uM) was 5.19% and 10.37%. The “Percentage Inhibition Average 1 μM” value (SARS2) was 21.81%, the “Screening data (Relative infection to DMSO controls) Average 1 μM” value (SARS2) was 78.19 and the “Percentage Inhibition Average 5 μM” value (SARS2) was 48.17%. For the same molecule, the “Screening data (Relative infection to DMSO controls) Average 5 μM” value (SARS2) was 51.83, the “Percentage Inhibition Average 10 μM” value (SARS2) was 79.68% and the “Screening data (Relative infection to DMSO controls) Average 10 μM” value (SARS2) was 20.32. For the same molecule, the “Percentage Inhibition Average 25 μM” value (SARS2) was 95.89%, the “Screening data (Relative infection to DMSO controls) Average 25 μM” value (SARS2) was 4.11 and the “Percentage Inhibition Average 50 μM” value (SARS2) was 93.60%. For the same molecule, the “Screening data (Relative infection to DMSO controls) Average 50 μM” value (SARS2) was 6.40, the “Average (relative infection to DMSO over the 5 tested concentrations)” value (SARS2) was 32.17 and the “Infection Data, Average, Mean” value (SARS2; n 4, 1 uM) was 78.19%. The “Infection Data, Average, Mean” value (SARS2; n 4, 5 uM) was 51.83%, the “Infection Data, Average, Mean” value (SARS2; n 4, 10 uM) was 20.32% and the “Infection Data, Average, Mean” value (SARS2; n 4, 25 uM) was 4.11%. The “Infection Data, Average, Mean” value (SARS2; n 4, 50 uM) was 6.40%, the “Relative cell count … Average 1 μM” value (cells (nuclei count)) was 107.69 and the “Relative cell count … Average 5 μM” value (cells (nuclei count)) was 114.94. For the same molecule, the “Relative cell count … Average 10 μM” value (cells (nuclei count)) was 149.83, the “Relative cell count … Average 25 μM” value (cells (nuclei count)) was 128.15 and the “Relative cell count … Average 50 μM” value (cells (nuclei count)) was 46.35. The “Toxicity Data, Average, Mean percentage relative to DMSO control” value (cells (nuclei count); n=4, 1 uM) was 107.69%, the “Toxicity Data, Average, Mean percentage relative to DMSO control” value (cells (nuclei count); n=4, 5 uM) was 114.94% and the “Toxicity Data, Average, Mean percentage relative to DMSO control” value (cells (nuclei count); n=4, 10 uM) was 149.83%. For the same molecule, the “Toxicity Data, Average, Mean percentage relative to DMSO control” value (cells (nuclei count); n=4, 25 uM) was 128.15%, the “Toxicity Data, Average, Mean percentage relative to DMSO control” value (cells (nuclei count); n=4, 50 uM) was 46.35% and the “Relative cell count … (for correlation analysis)” value (cells (nuclei count)) was 109.39.
